Measurements published in patent EP4768484A1, “HETEROCYCLIC FUSED RING COMPOUND, AND COMPOSITION AND USE THEREOF” (Shenzhen TargetRx, Inc., priority 2023, dated 2025).

Experiments:
Assay type in all cases: cell-based
K562 cells = experiment: Cell growth inhibitory activity assay (CellTiter-Glo), K562 cells; conditions: Homo sapiens, 72 h, CTG cell viability
Procedure, shortened: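 K562 cells in logarithmic growth were counted, diluted and plated in 96-well plates, with medium-only blanks and a separate T0 plate read by CTG the following day. After overnight incubation, graded compound concentrations were added for 72 h, with 0.5% DMSO wells as growth controls. Luminescence was read on a Biotek cytation3.0, and IC50 came from nonlinear fitting in GraphPad Prism 7.0.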

Ba/F3 BCR-ABL1 WT = target: T1, Ba/F3 BCR-ABL1 WT (Homo sapiens, UniProt P00519+P11274); experiment: Cell growth inhibitory activity assay (CellTiter-Glo), Ba/F3 BCR-ABL1 WT cells; conditions: 72 h, CTG cell viability
T1 construct: BCR (N-terminal fusion partner of the oncoprotein); expressed in transfected cells; host or cells: Ba/F3 (lentiviral transduction, monoclonal line)
Procedure, shortened: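 Ba/F3 parental cells or Ba/F3 lines lentivirally transduced with WT or mutant BCR-ABL1, seeded overnight then exposed to serially diluted compound 72 h at 37 °C, 5% CO2. Viability by CellTiter-Glo ATP luminescence with a T0 plate; 0.5% DMSO controls; IC50 from four-parameter nonlinear fit.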

Ba/F3 BCR-ABL1 T315I = target: T2, Ba/F3 BCR-ABL1 T315I (Homo sapiens, UniProt P00519+P11274, T315I); experiment: Cell growth inhibitory activity assay (CellTiter-Glo), Ba/F3 BCR-ABL1 T315I cells; conditions: 72 h, CTG cell viability
T2 construct: BCR (N-terminal fusion partner of the oncoprotein); expressed in transfected cells; host or cells: Ba/F3 (lentiviral transduction, monoclonal line)
Procedure, shortened: (§1)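 Luminescent ATP read-out (CellTiter-Glo) after 72 h compound exposure at 37 °C, 5% CO2. Cells: monoclonal Ba/F3 lentivirally engineered with mutant BCR-ABL1, or parental Ba/F3. A T0 plate read the day after seeding; 0.5% DMSO wells as uninhibited growth control. IC50 via variable-slope logistic fit of % inhibition.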

Ba/F3 parental cells = experiment: Cell growth inhibitory activity assay (CellTiter-Glo), Ba/F3 parental cells; conditions: Mus musculus, BaF3, 72 h, CTG cell viability, read-out: IC50 Ba/F3 BCR-ABL1 Parental
Procedure, shortened: as §1

IC50 (K562 cells) [nM]	Structure (SMILES)	IC50 (Ba/F3 BCR-ABL1 WT) [nM]	IC50 (Ba/F3 BCR-ABL1 T315I) [nM]	IC50 (Ba/F3 parental cells) [nM]
≤ 5	C[C@@H]1COCc2nc3cc(C(=O)Nc4ccc(OC(F)(F)Cl)cc4)cc(-c4ccc5c(c4)-c4n[nH]cc4C5)c3n21 [T-108, (R)-N-(4-(chlorodifluoromethoxy)phenyl)-6-(2,4-dihydroindeno[1,2-c]pyrazol-7-yl)-4-methyl-3,4-dihydro-1H-benzo[4,5]imidazo[2,1-c][1,4]xxazine-8-carboxamide]	≤ 5	> 1000	> 1000
≤ 5	C[C@@H]1COCc2nc3cc(C(=O)Nc4ccc(OC(F)(F)Cl)cc4)cc(-c4ccc5c(c4)-c4nn(-c6ncccn6)cc4C5)c3n21 [T-109]	≤ 5	≤ 5	> 1000
≤ 5	CC(C)n1cc2c(n1)-c1cc(-c3cc(C(=O)Nc4ccc(OC(F)(F)Cl)cc4)cc4nc5n(c34)[C@H](C)COC5)ccc1C2 [T-110, (R)-N-(4-(chlorodifluoromethoxy)phenyl)-6-(2-isopropyl-2,4-dihydroindeno[1,2-c]pyrazol-7-yl)-4-methyl-3,4-dihydro-1H-benzo[4,5]imidazo[2,1-c][1,4]oxazine-8-carboxamide]	≤ 5	5 to 50	> 1000
≤ 5	C[C@@H]1COCc2nc3cc(C(=O)Nc4ccc(OC(F)(F)Cl)cc4)cc(-c4ccc5c(c4)-c4nc(N)sc4C5)c3n21 [T-111, (R)-6-(2-amino-8H-indeno[1,2-d]thiazol-5-yl)-N-(4-(chlorodifluoromethoxy)phenyl)-4-methyl-3,4-dihydro-1H-benzo[4,5]imidazo[2,1-c][1,4]oxazine-8-carboxamide]	≤ 5	5 to 50	> 1000
≤ 5	CC(=O)Nc1nc2c(s1)Cc1ccc(-c3cc(C(=O)Nc4ccc(OC(F)(F)Cl)cc4)cc4nc5n(c34)[C@H](C)COC5)cc1-2 [T-112, (R)-6-(2-acetamido-8H-indeno[1,2-d]thiazol-5-yl)-N-(4-(chlorodifluoromethoxy)phenyl)-4-methyl-3,4-dihydro-1H-benzo[4,5]imidazo[2,1-c][1,4]oxazine-8-carboxamide]	≤ 5	5 to 50	> 1000
≤ 5	C[C@@H]1COCc2nc3cc(C(=O)Nc4ccc(OC(F)(F)Cl)cc4)cc(-c4ccc5c(c4)-c4ncsc4C5)c3n21 [T-113, (R)-N-(4-(chlorodifluoromethoxy)phenyl)-6-(8H-indeno[1,2-d]thiazol-5-yl)-4-methyl-3,4-dihydro-1H-benzo[4,5]imidazo[2,1-c][1,4]oxazine-8-carboxamide]	≤ 5	5 to 50	> 1000
≤ 5	C[C@@H]1CCSc2nc3cc(C(=O)Nc4ccc(OC(F)(F)Cl)cc4)cc(-c4cnccn4)c3n21 [T-116, (R)-N-(4-(chlorodifluoromethoxy)phenyl)-4-methyl-6-(pyrazin-2-yl)-3,4-dihydro-2H-benzo[4,5]imidazo[2,1-c][1,3]thiazine-8-carboxamide]	≤ 5	5 to 50	> 1000
≤ 5	CC(C)n1cnc2cc(C(=O)Nc3ccc(OC(F)(F)Cl)cc3)cc(-c3cnc4c(c3)-c3n[nH]cc3C4)c21 [T-119, N-(4-(chlorodifluoromethoxy)phenyl)-7-(2,4-dihvdropyrazolo[3',4':3,4]cyclopenta[1,2-b]pyridin-7-yl)-1-isopropyl-1H-benzo[d]imidazole-5-carboxamide]	≤ 5	5 to 50	> 1000
≤ 5	CC(C)n1cnc2cc(C(=O)Nc3ccc(OC(F)(F)Cl)cc3)cc(-c3cnc4c(c3)-c3nn(-c5ncccn5)cc3C4)c21 [T-120, N-(4-(chlorodifluoromethoxy)phenyl)-1-isopropyl-7-(2-(pyrimidin-2-yl)-2,4-dihydropyrazolo[3',4':3,4]cyclopenta[1,2-b]pyridin-7-yl)-1H-benzo[d]imidazole-5-carboxamide]	≤ 5	≤ 5	> 1000
≤ 5	CC(C)n1cnc2cc(C(=O)Nc3ccc(OC(F)(F)Cl)cc3)cc(-c3cnc4c(c3)-c3nn(-c5ncc(F)cn5)cc3C4)c21 [T-121, N-(4-(chlorodifluoromethoxy)phenyl)-7-(2-(5-fluoropyrimidin-2-yl)-2,4-dihydropyrazolo[3',4':3,4]cyclopenta[1,2-b]pyridin-7-yl)-1-isopropyl-1H-benzo[d]imidazole-5-carboxamide]	≤ 5	≤ 5	> 1000

More lines, now with the values behind:

Structure (SMILES)	IC50 (K562 cells) [nM]	IC50 (Ba/F3 BCR-ABL1 WT) [nM]	IC50 (Ba/F3 BCR-ABL1 T315I) [nM]	IC50 (Ba/F3 parental cells) [nM]
C[C@@H]1COCc2nc3cc(C(=O)Nc4ccc(OC(F)(F)Cl)cc4)cc(-c4cnc5c(c4)-c4nn(-c6nccc(-c7cncc(C#N)c7)n6)cc4C5)c3n21 [T-98, (R)-N-(4-(chlorodifluoromethoxy)phenyl)-6-(2-(4-(5-cyanopyridin-3-yl)pyrimidin-2-yl)-2,4-dihydropyrazolo[3',4':3,4]cyclopenta[1,2-b]pyridin-7-yl)-4-methyl-3,4-dihydro-1H-benzo[4,5]imidazo[2,1-c][1,4]oxazine-8-carboxamide]	≤ 5	≤ 5	≤ 5	> 1000
C[C@@H]1COCc2nc3cc(C(=O)Nc4ccc(OC(F)(F)Cl)cc4)cc(-c4cnc5c(c4)-c4nn(-c6nccc(-c7ccc(C#N)nc7)n6)cc4C5)c3n21 [T-99, (R)-N-(4-(chlorodifluoromethoxy)phenyl)-6-(2-(4-(6-cyanopyridin-3-yl)pyrimidin-2-yl)-2,4-dihydropyrazolo[3',4':3,4]cyclopenta[1,2-b]pyridin-7-yl)-4-methyl-3,4-dihydro-1H-benzo[4,5]imidazo[2,1-c][1,4]oxazine-8-carboxamide]	≤ 5	≤ 5	≤ 5	> 1000
C[C@@H]1COCc2nc3cc(C(=O)Nc4ccc(OC(F)(F)Cl)cc4)cc(-c4cnc5c(c4)-c4nn(-c6nccc(-c7cncnc7)n6)cc4C5)c3n21 [T-100, (R)-6-(2-([4,5'-bipyrimidin]-2-yl)-2,4-dihydropyrazolo[3',4':3,4]cyclopenta[1,2-b]pyridin-7-yl)-N-(4-(chlorodifluoromethoxy)phenyl)-4-methyl-3,4-dihydro-1H-benzo[4,5]imidazo[2,1-c][1,4]oxazine-8-carboxamide]	≤ 5	≤ 5	≤ 5	> 1000
CC(C)c1cnc(-n2cc3c(n2)-c2cc(-c4cc(C(=O)Nc5ccc(OC(F)(F)Cl)cc5)cc5nc6n(c45)[C@H](C)COC6)cnc2C3)nc1 [T-101, (R)-N-(4-(chlorodifluoromethoxy)phenyl)-6-(2-(5-isopropyloyrimidin-2-yl)-2,4-dihydropyrazolo[3',4':3,4]cyclooenta[1,2-b]pyridin-7-yl)-4-methyl-3,4-dihydro-1H-benzo[4,5]imidazo[2,1-c][1,4]oxazine-8-carboxamide]	≤ 5	≤ 5	≤ 5	> 1000
C[C@@H]1COCc2nc3cc(C(=O)Nc4ccc(OC(F)(F)Cl)cc4)cc(-c4cnc5c(c4)-c4nn(-c6nccn6C)cc4C5)c3n21 [T-102, (R)-N-(4-(chlorodifluoromethoxy)phenyl)-4-methyl-6-(2-(1-methyl-1H-imidazol-2-yl)-2,4-dihydropyrazolo[3',4':3,4]cyclopenta[1,2-b]pyridin-7-yl)-3,4-dihydro-1H-benzo[4,5]imidazo[2,1-c][1,4]oxazine-8-carboxamide]	≤ 5	≤ 5	≤ 5	> 1000
Cc1ccc(-n2cc3c(n2)-c2cc(-c4cc(C(=O)Nc5ccc(OC(F)(F)Cl)cc5)cc5nc6n(c45)[C@H](C)COC6)cnc2C3)nn1 [T-104-A, (R)-N-(4-(chlorodifluoromethoxy)phenyl)-4-methyl-6-(2-(6-methylpyridazin-3-yl)-2,4-dihydropyrazolo[3',4':3,4]cyclopenta[1,2-b]pyridin-7-yl)-3,4-dihydro-1H-benzo[4,5]imidazo[2,1-c][1,4]oxazine-8-carboxamide]	≤ 5	≤ 5	5 to 50	> 1000
Cc1ccc(-n2ncc3c2-c2cc(-c4cc(C(=O)Nc5ccc(OC(F)(F)Cl)cc5)cc5nc6n(c45)[C@H](C)COC6)cnc2C3)nn1 [T-104-B, (R)-N-(4-(chlorodifluoromethoxy)phenyl)-4-methyl-6-(1-(6-methylpyridazin-3-yl)-1,4-dihydropyrazolo[3',4':3,4]cyclopenta[1,2-b]pyridin-7-yl)-3,4-dihydro-1H-benzo[4,5]imidazo[2,1-c][1,4]oxazine-8-carboxamide]	≤ 5	≤ 5	5 to 50	> 1000
CC1(C)C(=O)Nc2cc(C(=O)Nc3ccc(OC(F)(F)Cl)cc3)cc(-c3cnc4c(c3)-c3n[nH]cc3C4)c21 [T-122, N-(4-(chlorodifluoromethoxy)phenyl)-4-(2,4-dihydropyrazolo[3',4':3,4]cyclopenta[1,2-b]pyridin-7-yl)-3,3-dimethyl-2-oxoindoline-6-carboxamide]	≤ 5	≤ 5	5 to 50	> 1000
